From patent publication US5100881A (priority 1989, dated 1992)

Assays:
P 388 leukemia = test system: P 388 leukemia; design: species or system mice; details: mouse, in vivo
L1210 cells = assay: cells; format: cell-based; details: Mus musculus, L1210, 48 h, read-out: IC50 (concentration which 50% inhibits the proliferation of the control cells)

Row | SMILES | SURVIVORS 30 days (P 388 leukemia) | SURVIVORS 60 days (P 388 leukemia) | T/C % (mean survival time test group over untreated control group) (P 388 leukemia) | IC50 (L1210 cells)
1 | CC[C@]1(O)C[C@@H]2CN(CCc3c([nH]c4ccccc34)[C@@](C(=O)OC)(c3cc4c(cc3OC)N(C)[C@H]3[C@@](O)(C(=O)OC)[C@H](OC(C)=O)[C@]5(CC)C=CCN6CC[C@]43[C@@H]65)C2)C1 [Vinblastine, vinblastine] | 1/6 | 1/6 | 245% | 2.3 ± 0.5 nM
2 | CC[C@]1(O)C[C@H]2CN(CCc3c([nH]c4ccccc34)[C@@](C(=O)OC)(c3cc4c(cc3OC)N(C=O)[C@H]3[C@@](O)(C(=O)OC)[C@H](OC(C)=O)[C@]5(CC)C=CCN6CC[C@]43[C@@H]65)C2)C1 [Vincristine, vincristine] | 0/6 | 0/6 | 192% | 4.2 ± 0.7 nM
